Data: patent US8828997B2, “2,3-dihydro-1H-imidazo(1,2-a)pyrimidin-5-one derivatives, preparation thereof, and pharmaceutical use thereof” (Sanofi, priority 2009, dated 2014)
pIC50: −log10 of the molar value.

Test system: AKT protein phosphorylated on serine 473 (P-AKT-S473) in PC3 human prostate carcinoma cells
Experiment: pAKT expression in PC3 human prostate carcinoma cells measured by MSD Multi-spot Biomarker detection (test B)
Assay type: cell-based
Settings: Homo sapiens, PC-3, P-AKT-S473, PC3 cells, MSD sandwich immunoassay, 1 to 2 h incubation, absolute IC50
Procedure, shortened: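 PC3 cells exposed to compound for 1-2 h at 37 °C (0.1% DMSO; up to 10 μM), lysed, and P-AKT-S473 quantified by electrochemiluminescent sandwich immunoassay. Percent inhibition normalised to DMSO wells with background subtracted. Absolute IC50 from dose-response curves, averaged over 2 experiments.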

COc1ccc(CCN2c3nc(N4CCOCC4)cc(=O)n3C[C@@]2(C)C(F)(F)F)cc1 [Example 1, (S)-1-[2-(4-Methoxyphenyl)ethyl]-2-methyl-7-morpholin-4-yl-2-trifluoromethyl-2,3-dihydro-1H-imidazo[1,2-a]pyrimidin-5-one]
pIC50: 8.52
